Here are results for 2 compounds from patent publication EP0827486B1, “STABILIZED ALKALI OR ALKALINE EARTH METAL HYPOBROMITE AND PROCESS FOR ITS PRODUCTION” (NALCO CHEMICAL COMPANY, priority 1996, dated 1997).

One data set relates to Pseudomonas aeruginosa. The data set can be described thus: Antibacterial activity of stored hypohalite solutions in cooling water. The settings on record: volume initially required for one ppm free halogen. It is filed as cell-based. On the procedure: Freshly prepared solutions of stabilized and unstabilized sodium hypobromite were diluted then added to cooling water in order to achieve a one ppm free halogen residual (as chlorine). Sodium hypochlorite was stabilized in the same fashion as described for NaOBr in Example One with the exception that NaBr was directly replaced with distilled water. Stabilized and unstabilized sodium hypochlorite were diluted then added to cooling water at a final concentration of one ppm free halogen residual (as chlorine). The volumes of all solutions needed to achieve a one ppm free halogen residual (as chlorine) was recorded. Following 6 and 21 days of dark storage, identical dilutions of stabilized and unstabilized sodium hypohalite solutions were prepared and the volume originally required for a one ppm free halogen residual (as chlorine) was added to cooling water containing approximately 10^6 Pseudomonas aeruginosa cells / mL. Aliquots were extracted at 10 and 30 minutes into cooling water dilution blanks containing a halogen neutralizer (0.05 percent Na2S2O3) then enumerated on tryptone glucose extract agar. Stabilized NaOBr retained its antibacterial activity after storage while the unstabilized form lost its efficacy against Pseudomonas aeruginosa (see Table III below). The results were even more dramatic as the storage period increased. This effect was likely due to the disproportionation of the unstable hypobromite ion into the non-biocidal species bromide and bromate. […]

Data set [1] can be described thus: Volatility: halogen vapors from concentrated solutions in a beaker. It is filed as physicochemical. The settings on record: concentrated solution in a beaker. On the procedure:
Concentrated solutions of either NaOCI, NaOBr, or stabilized NaOBr were added to a beaker. […] No odors were noticed from the stabilized NaOBr. This is an improvement over existing products by minimizing halogen odors in product storage areas.

Data set [2] is described as follows: Storage stability: loss of available halogen. It is filed as physicochemical. On the procedure:
Sodium hypochlorite solution was diluted in demand-free water. This diluted solution was titrated by the DPD-FAS method. The available chlorine level present in the original solution was determined to be 15 percent. 42.4 grams of the neat NaOCl solution were added to 20.5 grams of a 45 percent NaBr solution. This reaction forms unstabilized NaOBr. The stabilization solution was formulated with 9.6 grams of sulfamic acid, 14 grams of water, and 13.2 grams of 50 percent sodium hydroxide. The stabilization solution is then added with stirring to the NaOBr. The order of addition is critical in this process which differs from the Goodenough et al. reference. For instance, if the stabilizer was added to NaOCl prior to NaBr introduction, the bromide would not be oxidized to hypobromite. […] The stabilization procedure described here improved on the prior art as the decline of active ingredient was only 1 percent after 84 days (see Table I above). An unstabilized NaOBr solution prepared in an similar process by replacing sulfamic acid with distilled water lost 94 percent available halogen during the same period.

The text on data set [3]: AOX is a generic class of compounds which includes all organic molecules containing halogen. Limits for AOX discharge from cooling water systems have already been established in some European countries. To simulate AOX formation during stabilized and unstabilized sodium hypobromite action in cooling water, a mixed bacterial culture typically found in cooling water was cultivated in L-broth overnight and the cells harvested by centrifugation. The cell pellet was washed with synthetic cooling water (90 ppm calcium, 50 ppm magnesium, 110 ppm "M" alkalinity, pH 8.0 -8.2) twice to remove the remaining organic medium. Cells were then resuspended into an equal volume of cooling water. A capped dark bottle served as the reactor. Synthetic cooling water was added to the bottle followed by the washed bacterial stock yielding approximately 10^7 cells/ml. Stabilized NaOBr or unstabilized NaOBr was dosed into this bacterial suspension at a final concentration of 1, 2, 3, or 4 ppm total halogen (as chlorine). Headspace in the bottle was minimized to avoid the evaporative loss of halogenated organics and the solution stirred for 24 hours to simulate a typical cooling system. Immediately before AOX analysis, the sample was acidified to pH 2.0 with concentrated nitric acid. A Mitsubishi TOX-10 Analyzer was used according to US EPA Method 9020 to measure the AOX concentration in the samples. […]

A short description of data set [4]: Bromate formation in stored solutions (ion chromatography). In kind it is physicochemical. The settings on record: STORED FOR EIGHT MONTHS in the dark at room temperature; pH 14. On the procedure: Hypohalite ions are known to disproportionate into halate and halide under alkaline conditions. Halate ions are undesirable degradants being suspect carcinogens and are under consideration for governmental regulation. The reaction of NaBr with NaOCI can yield significant amounts of bromate in elevated pH environments. […] Stabilized and unstabilized sodium hypobromite solutions were prepared as described in Example One. These solutions were stored in the dark at room temperature during the course of the study. Eight month old samples of stabilized and unstabilized NaOBr, both maintained at pH 14, a condition suitable for bromate formation, were assayed for bromate. A Dionex 4000 series gradient ion chromatography system equipped with AG9-SC/AS9-SC columns and a conductivity detector was used to measure the bromate concentration in the samples. The chromatograph was operated according to a method currently under investigation by the EPA for the analysis of bromate in ozonated drinking water. Purified water from an Interlake Water Systems deionization system was used for the preparation of all reagents and standard solutions to prevent contamination.

A short description of data set [5]: Bromate analysis of cooling water dosed with dilute solutions. It is filed as physicochemical. Particulars: cooling water (pH 8.3); total available halogen 1, 2, 3, and 4 ppm (as Cl2). On the procedure:
As noted above, the pH of these solutions was high which favors bromate formation. However, NaOCl, which contains significant amounts of NaOH, is typically diluted with system water prior to the introduction of the bromide species in most industrial applications. The pH of this diluted system would be lower than the neat NaOCI / NaBr formulation described above theoretically minimizing bromate formation. The available chlorine in a NaOCI sample diluted (1:100) with distilled water was titrated by the DPD-FAS method. A solution of 45 percent sodium bromide was added to the dilute NaOCI at a molar ratio of 1 Cl2 : 1 Br^- forming NaOBr. This reaction proceeded for thirty minutes. Then, appropriate volumes of this dilute NaOBr solution were added to cooling water (pH 8.3) giving total available halogen levels of 1, 2, 3, and 4 ppm (as Cl2) as determined by the DPD-FAS method. Similarly, a dilution of stabilized sodium hypobromite (1:100) was made in distilled water. Dilute stabilized NaOBr was added to cooling water (pH 8.3) giving total available halogen levels of 1, 2, 3, and 4 ppm (as Cl2) as determined by the DPD-FAS method. Bromate analysis then proceeded in the manner described above. Bromate was not detected in any of the cooling water samples dosed with either stabilized or unstabilized dilute NaOBr at typical use concentrations.

Setting [6] is: 6 DAYS OF STORAGE, CONTACT TIME 10 MINUTES.
Setting [7] is: 6 DAYS OF STORAGE, CONTACT TIME 30 MINUTES.
[8] abbreviates: 21 DAYS OF STORAGE, CONTACT TIME 10 MINUTES.
Where [9] appears, read: 21 DAYS OF STORAGE, CONTACT TIME 30 MINUTES.

On to `[Na+].[O-]Cl` [unstabilized NaOCl, sodium hypochlorite], for which the “% BACTERIA KILLED” value with Pseudomonas aeruginosa (setting [6]), in the data set on Pseudomonas aeruginosa (setting [7]), with Pseudomonas aeruginosa (setting [8]) and with Pseudomonas aeruginosa (setting [9]) was 100% throughout. Further, in data set [1], the “Halogen vapors / odors” value is “Halogen vapors were detected”.
For `[Na+].[O-]Br` [Unstabilized Sodium Hypobromite, sodium hypobromite], the “% LOSS OF AVAILABLE HALOGEN” value in data set [2] (After 14 days) amounted to 74%; in data set [2] (After 21 days), 79%; in data set [2] (After 34 days) it was 84%; in data set [2] (After 84 days), 93%; in data set [2] (After 84 days, listed as unstabilized NaOBr) it was 94%. Further, the “linear-fit equation AOX (ppb) = factor X Dose (ppm)” value in data set [3] is 53.9. The “PERCENT BROMATE” value in data set [4] was 2.700%. Besides, the “% BACTERIA KILLED” value is 99.8% in the data set with Pseudomonas aeruginosa (setting [6]), 99.7% in the data set with Pseudomonas aeruginosa (setting [7]), 0.4% in the data set with Pseudomonas aeruginosa (setting [8]) and 6.1% in the data set with Pseudomonas aeruginosa (setting [9]). The Bromate entry in data set [5] is “not detected”. Further, the “Halogen vapors / odors” value in data set [1] is “Halogen vapors were detected”.
